Reference: US20040019024A1, “Use of vitamin d derivatives as bone resorption inhibitors” (priority 2000, published 2004)
Marks after values point to notes of the source that are not given here.

Tests used:
[1] = system: bone marrow cells of Paget's disease of bone patients; assay: Osteoclast formation induced by 1α,25-dihydroxyvitamin D3 in bone marrow cultures from Paget's disease of bone patients; type: cell-based, human; conditions: for osteoclast formation (average number of cells ± S.D.): Paget's marrow
Description: (§1) Mononuclear cells were fractionated from bone marrow cells of healthy normal persons according to a method of Kurihara et al. (Endocrinology, vol. 126, 2733-2741 (1990)). Briefly, bone marrow cells were obtained from normal persons, a mononuclear cell fraction was collected by Hypaque-Ficoll density gradient centrifugation, the cell fraction was washed with α-Minimal Essential Media (α-MEM) 3 times, and the cells dispersed in α-MEM containing 10% fetal bovine serum. This mononuclear cell suspension was seeded in 100-mm tissue culture plates, the culture plate was kept for 90 minutes at 37° C. in a 4% CO2-air atmosphere, and the non-adherent cells were collected. The non-adherent mononuclear cells were dispersed into α-MEM culture medium containing 20% horse serum at 10^6 cells/ml, the cell suspension was seeded into 96-well multi plates at 100 μl/well.
The capacity of the compound 11 (23S isomer) to inhibit osteoclast formation induced by 1α,25-dihydroxyvitamin D3 was evaluated as follows: Various concentrations of 1α,25-dihydroxyvitamin D3, various concentrations of compound 11 ([…]) solution were added to each well. The culture medium was replaced twice weekly and the cultures continued for 3 weeks at 37° C. in an atmosphere of 4% CO2-air. Osteoclasts that formed were identified by their capacity to bind the 23C6 antibody. The nuclei were counter stained with methyl green. Cells that reacted with the 23C6 antibody and had 3 or more nuclei were scored as osteoclasts.
Bone marrow cells were obtained from involved bones of patients with Paget's disease of bone and processed and cultured as described above for normal bone cells. The cultures were treated in an identical manner with 1α,25-dihydroxyvitamin D3 and/or compound 11 (23S isomer) as described in Example 1.
Bone marrow cultures were performed as described in Example 1, with the exception that different types of vitamin D antagonists were added to at varying concentrations to bone marrow cultures stimulated with 1α,25-dihydroxyvitamin D3. The bone marrow cells were taken from involved bones of patients with Paget's disease of bone and the cultures were performed as described in Example 2. There are two diastereoisomers, based on the asymmetric carbon at the 23 position, in compounds 13 and 16. The isomer having the shorter retention time on reverse phase HPLC analysis was the more polar isomer and the isomer having the longer retention time was the less polar isomer.

vitamin D deficient rats = assay: Bone resorption (serum calcium) induced by 1α,25-dihydroxyvitamin D3 in vitamin D deficient rats; type: in vivo, Wistar rats
Description: Four-week-old male Wistar rats purchased from Japan SLC (Shizuoka, in Japan) were used. The animals were kept in wire-net cages (three animals in a cage) and raised for 7 weeks with free access to a vitamin D-deficient diet (Ca, 0.0036%; P, 0.3%; Harlan Taklad Research Diet, Madison, Wis., U.S.A.) and drinking water (well water treated with hypochlorite of […]±0.2 ppm). Temperature was kept at 23±1° C. and the humidity at 55±10%. Five animals were used for each experimental group. The control animals received intravenously administered solvent (5% ethanol-0.1% Triton X-100-physiological saline solution), and the experimental animals were intravenously administered 1α,25-dihydroxyvitamin D3 at a dose of 0.25 μg/kg. For animals receiving vitamin D derivatives, compound 11 (23S isomer) was administered intravenously at a dose of 2 μg/kg, 10 μg/kg or 50 μg/kg, or the compound 11 (23S isomer) with or without 1α,25-dihydroxyvitamin D3 at a dose of 0.25 μg/kg. The volume was 2 ml/kg for each animal. 24 hours after administration, a blood sample was taken out from abdominal descending aorta under ether anesthesia, the serum was collected according to conventional methods, and the calcium concentration in the serum was measured. The calcium concentrations were measured according to OCPC-method (Am. J. Clin. Pathol., vol. 45, 290-296 (1966)) with an autoanalyzer (type 7070, manufactured by Hitachi Seisakusho).

[2] = system: bone marrow cells of normal persons; assay: Osteoclast formation induced by 1α,25-dihydroxyvitamin D3 in normal human bone marrow cultures; type: cell-based; conditions: for osteoclast formation (average number of cells ± S.D.): normal marrow
Description: as §1, with “μl/well. The capacity of the compound 11 (23S isomer) to inhibit osteoclast formation induced by 1α,25-dihydroxyvitamin D3 was evaluated as follows: Various concentrations of 1α,25-dihydroxyvitamin D3, various concentrations of compound 11 (23S isomer) or a combination of 10^−8 M 1α,25-dihydroxyvitamin D3 solution and various concentrations of compound 11 (23S isomer) solution were added to each well. The culture medium was replaced twice weekly and the cultures continued for 3 weeks at 37° C. in an atmosphere of 4% CO2-air. Osteoclasts that formed were identified by their capacity to bind the 23C6 antibody. The nuclei were counter stained with methyl green. Cells that reacted with the 23C6 antibody and had 3 or more nuclei were scored as osteoclasts.” for “μl/well.”

## C=C1CC(CC(C)C2CCC3C(=CC=C4CC(O)CC(O)C4=C)CCCC32C)OC1=O [compound 11 (23S isomer), (23S)-25-Dehydro-1α,25-Dihydroxyvitamin D3-26, 23-Lactone]
[1]; 10^−10 M 1α,25-dihydroxyvitamin D3 + compound 10^−6 M
  osteoclast formation (average number of cells ± S.D.): 1 ± 1 cells
[1]; 10^−10 M 1α,25-dihydroxyvitamin D3 + compound 10^−7 M, listed as compound 11 (235 isomer)
  osteoclast formation (average number of cells ± S.D.): 14 ± 1 cells
[1]; 10^−10 M 1α,25-dihydroxyvitamin D3 + compound 10^−8 M, listed as compound 11 (235 isomer)
  osteoclast formation (average number of cells ± S.D.): 63 ± 5 cells
[1]; 10^−10 M 1α,25-dihydroxyvitamin D3 + compound 10^−9 M
  osteoclast formation (average number of cells ± S.D.): 125 ± 5 cells
[1]; 10^−10 M 1α,25-dihydroxyvitamin D3 + compound 10^−10 M
  osteoclast formation (average number of cells ± S.D.): 155 ± 6 cells
[1]; 10^−10 M 1α,25-dihydroxyvitamin D3 + compound 10^−11 M
  osteoclast formation (average number of cells ± S.D.): 170 ± 13 cells
[1]; Paget's marrow cultures
  induction of osteoclast formation by the compound alone (in words): did not induce osteoclast formation
[1]; compound alone, 10^−6 M
  osteoclast formation (average number of cells ± S.D.): 1 ± 1 cells
[1]; compound alone, 10^−7 M
  osteoclast formation (average number of cells ± S.D.): 8 ± 2 cells
[1]; compound alone, 10^−8 M
  osteoclast formation (average number of cells ± S.D.): 9 ± 3 cells
[1]; compound alone, 10^−9 M
  osteoclast formation (average number of cells ± S.D.): 16 ± 2 cells
[1]; compound alone, 10^−10 M
  osteoclast formation (average number of cells ± S.D.): 20 ± 4 cells
[1]; compound alone, 10^−11 M
  osteoclast formation (average number of cells ± S.D.): 29 ± 5 cells
[1]; compound alone, Paget's marrow cultures
  effect on basal osteoclast formation (in words): inhibited basal osteoclast formation
Vitamin D deficient rats; 0.25 μg/kg 1α,25-dihydroxyvitamin D3 + compound 2 μg/kg intravenously, 24 hours
  serum Ca concentration: 5.31 ± 0.22 mg/100 ml serum
Vitamin D deficient rats; 0.25 μg/kg 1α,25-dihydroxyvitamin D3 + compound 10 μg/kg intravenously, 24 hours
  serum Ca concentration: 4.97 ± 0.18^a mg/100 ml serum
Vitamin D deficient rats; 0.25 μg/kg 1α,25-dihydroxyvitamin D3 + compound 50 μg/kg intravenously, 24 hours
  serum Ca concentration: 4.72 ± 0.21^b mg/100 ml serum
Vitamin D deficient rats; 0.25 μg/kg 1α,25-dihydroxyvitamin D3 simultaneously with 2, 10 or 50 μg/kg compound
  bone resorption induced by 1α,25-dihydroxyvitamin D3 (in words): suppressed
Vitamin D deficient rats; compound alone, 2 μg/kg intravenously, 24 hours after administration
  serum Ca concentration: 4.61 ± 0.12 mg/100 ml serum
Vitamin D deficient rats; compound alone, 10 μg/kg intravenously, 24 hours after administration
  serum Ca concentration: 4.67 ± 0.11 mg/100 ml serum
Vitamin D deficient rats; compound alone, 50 μg/kg intravenously, 24 hours after administration
  serum Ca concentration: 4.65 ± 0.18 mg/100 ml serum
Vitamin D deficient rats; even at a dose of 50 μg/kg, 24 hours after administration
  serum calcium concentration after compound alone (in words): increased serum calcium concentrations were not observed
[2]; 10^−8 M 1α,25-dihydroxyvitamin D3 + compound 10^−6 M
  osteoclast formation (average number of cells ± S.D.): 20 ± 7 cells
[2]; 10^−8 M 1α,25-dihydroxyvitamin D3 + compound 10^−7 M
  osteoclast formation (average number of cells ± S.D.): 33 ± 16 cells
[2]; 10^−8 M 1α,25-dihydroxyvitamin D3 + compound 10^−8 M
  osteoclast formation (average number of cells ± S.D.): 44 ± 8 cells
[2]; 10^−8 M 1α,25-dihydroxyvitamin D3 + compound 10^−9 M
  osteoclast formation (average number of cells ± S.D.): 55 ± 12 cells
[2]; 10^−8 M 1α,25-dihydroxyvitamin D3 + compound 10^−10 M
  osteoclast formation (average number of cells ± S.D.): 80 ± 5 cells
[2]; 10^−8 M 1α,25-dihydroxyvitamin D3 + compound 10^−11 M
  osteoclast formation (average number of cells ± S.D.): 85 ± 8 cells
[2]; compound alone, 10^−6 M, 3 weeks
  osteoclast formation (average number of cells ± S.D.): 0 ± 0 cells
[2]; compound alone, 10^−7 M, 3 weeks
  osteoclast formation (average number of cells ± S.D.): 0 ± 1 cells
[2]; compound alone, 10^−8 M, 3 weeks
  osteoclast formation (average number of cells ± S.D.): 3 ± 2 cells
[2]; compound alone, 10^−9 M, 3 weeks
  osteoclast formation (average number of cells ± S.D.): 5 ± 1 cells
[2]; compound alone, 10^−10 M, 3 weeks
  osteoclast formation (average number of cells ± S.D.): 9 ± 5 cells
[2]; compound alone, 10^−11 M, 3 weeks
  osteoclast formation (average number of cells ± S.D.): 17 ± 4 cells
[2]; normal marrow cultures
  induction of osteoclast formation by the compound alone (in words): did not induce osteoclast formation
